Reference: patent US9161930B2, “Pharmaceutical composition for diabetic nephropathy and its preparation and application” (Guangzhou Consun Medicine R & D Co., Ltd., priority 2009, dated 2015)

Key:
[1] = tested on: Rat messangial cell line HBZY-1; test: Hydroxyproline content in supernatant of rat mesangial cells induced by AGEs; type: cell-based; settings: AGEs 0.25 mg/ml, 48 h, supernatant of HBZY-1 cells
Description: Dissolved the 5% bovine serum albumin (BSA) without globulin and 0.5 mol/L D-amylaceum in 0.2 mol/L phosphate buffered solution (PBS, PH=7.2), filtrated with 0.24 μm micropore film and incubated under 37° C. for 60 days. After the incubation of the advanced glycation end products (AGEs) were finished, the umcombinated material was cleaned by extend dialyse method. Diluted to a necessary concentration and filtrated with 0.22 μm micropore film.
Prepare of unicell suspension with HBZY-1 cells in log phase growth and DMEM medium with 5% newborn calf serum, take 100 μl/well (cell quantities: 1×10^4/well) to the 96-well plate, incubated under 5% CO2 incubator at 37° C. for 24 hours, change with 100 μl the DMEM without serum and incubate another 24 hours to make the cells to anestrum (synchronization). Discard of the supernatant, add 90 μl DMEM medium with 5% newborn calf serum and 10 μl the different concentration of AGEs by gradient dilution with 6 repeat per group, incubate by gradient time, respectively, determinate the proliferation degree of rat mesangial cells by MTT.
(§1) Put the coverslips pre-treated by poly-L-lysine into 24-well cell culture plates, in order to make the HBZY-1 cells grow on until synchronization. Discard of the supernatant, add 800 μl DMEM medium, 100 μl AGEs (final concentration is 0.25 mg/ml) in each medicine group, then add 100 μl water extract of Cortex Mori (final concentration is 0.1 g/L) or DPMC (final concentration is 0.5, 5, 25 or 125 nM/L). The normal control group is added 1 ml DEME medium when the AGEs group is added 900 μl DMEM medium and 100 μl AGEs (final concentration was 0.25 mg/ml). Every group repeats for 6 times. Then, all the groups are incubated under 5% CO2 incubator at 37° C. for 48 h. Take suction of the cell supernatant for the content determination of hydroxyproline after the cells completely covered the coverslips and take out of the coverslips for immunocytochemistry staining.
Determinate the hydroxyproline content in cultured fluid of rat mesangial cells and express as x±s, analyze by t-test; observate the TGFβ-1 expression in immunohistochemistry photo of rat mesangial cells under microscope.

[2] = tested on: STZ diabetic nephropathy model rat; test: Serum biochemical indicators in rat of diabetic nephropathy (STZ); type: in vivo, Wistar rat; settings: 14 weeks
Description: (§2) Model by administrating of low dose STZ for several times and determinate as the model rat of diabetic nephropathy, divide into 6 groups with 10 mice/group: model group, positive drug control group (aminoguanidine, 100 mg/kg), water extract of Cortex Mori group, 3 different concentration doses of DPMC group (high dose group: 4 mg/kg; middle dose group: 2 mg/kg; low dose: 1 mg/kg), normal control group.
(§3) Each group is given the same volume corresponding drug in different concentration or physiological saline everyday by intragastric administration for 14 weeks.
(§4) Collect the 24 hour urine after administration is over, calculate the urine volume and determinate the content of total protein of urine, micro-albumen and urine creatinine; obtain blood by eye sockets and determinate the biochemical indicator with automatic biochemistry analyzer; take out of the double kidneys, fix with formalin and remain to histopathologic examination.
(§5) Statistical analysis of all determinations is calculated by interclass t-test and expressed as x±s.

[3] = tested on: STZ diabetic nephropathy model rat; test: 24 hour urine indicators in rat model of diabetic nephropathy induced by STZ; type: in vivo, Wistar rat; settings: 14 weeks; for Total protein (mg) of urine / micro-albumen / urine creatinine: 24 hour urine
Description: as §2, §3, §4, §5

[4] = tested on: CTGF; test: CTGF expression of rat glomcrulus in model of diabetic nephropathy; type: in vivo, Wistar rat; settings: 14 weeks, STZ rat
Description: as §2, §3, §4, §5

[5] = tested on: STZ diabetic nephropathy model rat; test: Pathohistology (pathology score) of rat glomcrulus in model of diabetic nephropathy; type: in vivo, Wistar rat; settings: 14 weeks
Description: as §2, §3, §4, §5

[6] = tested on: TGFβ-1; test: TGFβ-1 expression of rat mesangial cells induced by AGEs (immunocytochemistry staining); type: cell-based; settings: 48 h, FIG. 1
Description: as §1, with “staining. […]” for “staining.”

[7] = 100 mg/kg intragastric everyday

Work on `COC(=O)Nc1ccc(Cc2ccc(NC(=O)OC)cc2)cc1` [DPMC, 4,4′-diphenylmethane-bis(methyl) carbamates] yielded a hydroxyproline ([1]; 0.5 nM/L) of 7.68 ± 1.10 µg/mL, a hydroxyproline ([1]; 5 nM/L) of 7.76 ± 1.21 µg/mL and a hydroxyproline ([1]; 25 nM/L) of 5.71 ± 1.18 µg/mL. The hydroxyproline ([1]; 125 nM/L) was 4.76 ± 0.58 µg/mL, the AGEs ([2]; 1 mg/kg intragastric everyday) was 290 ± 59 and the “BUN” value ([2]; 1 mg/kg intragastric everyday) was 7.0 ± 1.0 mmol/L. The “LDL” value ([2]; 1 mg/kg intragastric everyday) was 1.91 ± 0.55 mmol/L, the “MDA” value ([2]; 1 mg/kg intragastric everyday) was 7.8 ± 2.3 nmol/L and the “SC (umol/L), serum creatinine” value ([2]; 1 mg/kg intragastric everyday) was 91.0 ± 31.1 µmol/L. The “SOD (U/ml)” value ([2]; 1 mg/kg intragastric everyday) was 498 ± 33 U/ml, the “TG” value ([2]; 1 mg/kg intragastric everyday) was 3.23 ± 0.76 mmol/L and the AGEs ([2]; 2 mg/kg intragastric everyday) was 289 ± 56. The “BUN” value ([2]; 2 mg/kg intragastric everyday) was 6.6 ± 1.2 mmol/L, the “LDL” value ([2]; 2 mg/kg intragastric everyday) was 1.51 ± 0.53 mmol/L and the “MDA” value ([2]; 2 mg/kg intragastric everyday) was 6.8 ± 1.9 nmol/L. For the same molecule, the “SC (umol/L), serum creatinine” value ([2]; 2 mg/kg intragastric everyday) was 76.6 ± 24.5 µmol/L, the “SOD (U/ml)” value ([2]; 2 mg/kg intragastric everyday) was 513 ± 41 U/ml and the “TG” value ([2]; 2 mg/kg intragastric everyday) was 2.76 ± 0.80 mmol/L. For the same molecule, the AGEs ([2]; 4 mg/kg intragastric everyday) was 281 ± 78, the “BUN” value ([2]; 4 mg/kg intragastric everyday) was 6.5 ± 1.5 mmol/L and the “LDL” value ([2]; 4 mg/kg intragastric everyday) was 1.43 ± 0.36 mmol/L. For the same molecule, the “MDA” value ([2]; 4 mg/kg intragastric everyday) was 6.8 ± 1.3 nmol/L, the “SC (umol/L), serum creatinine” value ([2]; 4 mg/kg intragastric everyday) was 74.0 ± 17.1 µmol/L and the “SOD (U/ml)” value ([2]; 4 mg/kg intragastric everyday) was 520 ± 29 U/ml. For the same molecule, the “TG” value ([2]; 4 mg/kg intragastric everyday) was 2.57 ± 0.80 mmol/L, the “Urine V (24 hr, ml)” value ([3]; 1 mg/kg intragastric everyday) was 59.9 ± 21.8 mL and the “Total protein (mg) of urine” value ([3]; 1 mg/kg intragastric everyday) was 69.1 ± 20.4 mg. The “micro-albumen” value ([3]; 1 mg/kg intragastric everyday) was 1.57 ± 0.56 mg, the “urine creatinine” value ([3]; 1 mg/kg intragastric everyday) was 1.4 ± 0.6 mmol/L and the “Urine V (24 hr, ml)” value ([3]; 2 mg/kg intragastric everyday) was 41.3 ± 16.4 mL. For the same molecule, the “Total protein (mg) of urine” value ([3]; 2 mg/kg intragastric everyday) was 54.0 ± 17.4 mg, the “micro-albumen” value ([3]; 2 mg/kg intragastric everyday) was 0.93 ± 0.55 mg and the “urine creatinine” value ([3]; 2 mg/kg intragastric everyday) was 2.9 ± 1.2 mmol/L. For the same molecule, the “Urine V (24 hr, ml)” value ([3]; 4 mg/kg intragastric everyday) was 33.9 ± 22.2 mL, the “Total protein (mg) of urine” value ([3]; 4 mg/kg intragastric everyday) was 46.2 ± 21.6 mg and the “micro-albumen” value ([3]; 4 mg/kg intragastric everyday) was 0.92 ± 0.42 mg. For the same molecule, the “urine creatinine” value ([3]; 4 mg/kg intragastric everyday) was 4.3 ± 2.0 mmol/L, the “CTGF(%)” value ([4]; 1 mg/kg intragastric everyday) was 7.1 ± 1.6 % and the “CTGF(%)” value ([4]; 2 mg/kg intragastric everyday) was 6.4 ± 2.7 %. The “CTGF(%)” value ([4]; 4 mg/kg intragastric everyday) was 6.0 ± 3.1 %, the Pathology score ([5]; 1 mg/kg intragastric everyday) was 2.7 ± 1.0 and the Pathology score ([5]; 2 mg/kg intragastric everyday) was 1.8 ± 1.3. The Pathology score ([5]; 4 mg/kg intragastric everyday) was 1.2 ± 1.1, the “TGFβ-1 expression of rat mesangial cells induced by AGEs” value ([6]; different doses 0.5, 5, 25, 125 nM/L) was “restrain the TGFβ-1 expression increase” and the “TGFβ-1 expression of rat mesangial cells induced by AGEs” value ([6]; large dose 125 nM/L) was “performs best”.

With `N=C(N)NN` [aminoguanidine, reference compound] the AGEs [2, 7] was 283 ± 78, the “BUN” value [2, 7] was 6.6 ± 0.8 mmol/L and the “LDL” value [2, 7] was 2.01 ± 0.58 mmol/L. The “MDA” value [2, 7] was 5.9 ± 1.7 nmol/L, the “SC (umol/L), serum creatinine” value [2, 7] was 77.7 ± 20.3 µmol/L and the “SOD (U/ml)” value [2, 7] was 516 ± 20 U/ml. The “TG” value [2, 7] was 3.35 ± 0.87 mmol/L, the “Urine V (24 hr, ml)” value [3, 7] was 36.2 ± 21.7 mL and the “Total protein (mg) of urine” value [3, 7] was 43.2 ± 29.9 mg. For the same molecule, the “micro-albumen” value [3, 7] was 1.00 ± 0.27 mg, the “urine creatinine” value [3, 7] was 4.0 ± 2.3 mmol/L and the “CTGF(%)” value [4, 7] was 5.9 ± 2.2 %. It also gave a Pathology score [5, 7] of 2.1 ± 1.0.
